Assays:
Conditions in all cases: 72 h
MV4-11 = system: MV4-11
How it was run: (§1)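 In 384-well plates holding acoustically pre-printed compounds at five tenfold doses from 1 to 10,000 nM, in duplicate, fifteen myeloid leukaemia cell lines were grown in RPMI 1640 for 72 h at 37 °C with 5% CO2. Luminescent ATP viability was scaled between vehicle and a positive control at 10 µM. The IC50 was then taken from log-logistic dose–response fits with four parameters.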

K-562 = system: K-562
How it was run: as §1

SHI-1 = system: SHI-1
How it was run: as §1

NOMO-1 = system: NOMO-1
How it was run: as §1

Mono-Mac-6 = system: Mono-Mac-6
How it was run: as §1

HL-60 = system: HL-60
How it was run: as §1

KU-812 = system: KU-812
How it was run: as §1

HEL = system: HEL
How it was run: as §1

ML-2 = system: ML-2
How it was run: as §1

BV-173 = system: BV-173
How it was run: as §1

MOLM-13 = system: MOLM-13
How it was run: as §1

THP-1 = system: THP-1
How it was run: as §1

KG-1 = system: KG-1
How it was run: as §1

LAMA-84 = system: LAMA-84
How it was run: as §1

Row | Structure (SMILES) | IC50 (cell viability) (MV4-11) | IC50 (cell viability) (K-562) | IC50 (cell viability) (SHI-1) | IC50 (cell viability) (NOMO-1) | IC50 (cell viability) (Mono-Mac-6) | IC50 (cell viability) (HL-60) | IC50 (cell viability) (KU-812) | IC50 (cell viability) (HEL) | IC50 (cell viability) (ML-2) | IC50 (cell viability) (BV-173) | IC50 (cell viability) (MOLM-13) | IC50 (cell viability) (THP-1) | IC50 (cell viability) (KG-1) | IC50 (cell viability) (LAMA-84)
1 | OCCN(CCO)c1nc(N2CCCCC2)c2nc(N(CCO)CCO)nc(N3CCCCC3)c2n1 [Dipyridamole] | 8.82 µM | > 10 µM | > 10 µM | > 10 µM | > 10 µM | > 10 µM | > 10 µM | > 10 µM | > 10 µM | 3.55 µM | > 10 µM | > 10 µM | > 10 µM | > 10 µM
2 | C[C@H]1O[C@H](O[C@H]2[C@H](O)[C@@H](O)[C@@H](O[C@H]3[C@H](O)[C@@H](O)C(O)O[C@@H]3CO)O[C@@H]2CO)[C@H](O)[C@@H](O)[C@@H]1N[C@H]1C=C(CO)[C@@H](O)[C@H](O)[C@H]1O (mixture of isomers) [Acarbose] | > 10 µM | > 10 µM | > 10 µM | > 10 µM | > 10 µM | > 10 µM | > 10 µM | > 10 µM | > 10 µM | > 10 µM | > 10 µM | > 10 µM | > 10 µM | > 10 µM
3 | O=C1N[C@@H]2[C@@H](O)[C@@H](O)[C@H](O)[C@@H](CO)N2C1=O [Kifunensine] | > 10 µM | > 10 µM | > 10 µM | > 10 µM | > 10 µM | > 10 µM | > 10 µM | > 10 µM | > 10 µM | > 10 µM | > 10 µM | > 10 µM | > 10 µM | > 10 µM
4 | CC(C)(CS(=O)(=O)[O-])NC(=O)CC[N+](C)(C)CCO | > 10 µM | > 10 µM | > 10 µM | > 10 µM | > 10 µM | > 10 µM | > 10 µM | > 10 µM | > 10 µM | > 10 µM | > 10 µM | > 10 µM | > 10 µM | > 10 µM
5 | c1ccc2nc(-c3nnc4sc(-c5cnccn5)nn34)ccc2c1 | > 10 µM | > 10 µM | > 10 µM | > 10 µM | > 10 µM | > 10 µM | > 10 µM | > 10 µM | > 10 µM | > 10 µM | > 10 µM | > 10 µM | > 10 µM | > 10 µM
6 | Cl.OC[C@H]1NC[C@H](O)[C@@H](O)[C@H]1O [Migalastat] | > 10 µM | > 10 µM | > 10 µM | > 10 µM | > 10 µM | > 10 µM | > 10 µM | > 10 µM | > 10 µM | > 10 µM | > 10 µM | > 10 µM | > 10 µM | > 10 µM
7 | COc1ccc2c(c1)c(CC(=O)O)c(C)n2C(=O)c1ccc(Cl)cc1 [Indomethacine] | > 10 µM | > 10 µM | > 10 µM | > 10 µM | > 10 µM | > 10 µM | > 10 µM | > 10 µM | > 10 µM | > 10 µM | > 10 µM | > 10 µM | > 10 µM | > 10 µM
8 | OC[C@H]1OC(O)C[C@@H](O)[C@@H]1O (stereo partly drawn) [2-deoxyglucose] | > 10 µM | > 10 µM | > 10 µM | > 10 µM | > 10 µM | > 10 µM | > 10 µM | > 10 µM | > 10 µM | > 10 µM | > 10 µM | > 10 µM | > 10 µM | > 10 µM
9 | CC(C)(CCCCCCCCCCC(C)(C)CC(=O)O)CC(=O)O [MEDICA 16] | > 10 µM | > 10 µM | > 10 µM | > 10 µM | > 10 µM | > 10 µM | > 10 µM | > 10 µM | > 10 µM | > 10 µM | > 10 µM | > 10 µM | > 10 µM | > 10 µM
10 | Cn1c2cc(S(C)=O)sc2c2cnn(Cc3cccc(N)c3)c(=O)c21 (stereo not drawn) [TEPP-46] | > 10 µM | > 10 µM | > 10 µM | > 10 µM | > 10 µM | > 10 µM | > 10 µM | > 10 µM | > 10 µM | > 10 µM | > 10 µM | > 10 µM | > 10 µM | > 10 µM
11 | Cn1cc(C[C@@H](N)C(=O)O)c2ccccc21 [Indoximod] | > 10 µM | > 10 µM | > 10 µM | > 10 µM | > 10 µM | > 10 µM | > 10 µM | > 10 µM | > 10 µM | > 10 µM | > 10 µM | > 10 µM | > 10 µM | > 10 µM
12 | CCCC(CCC)C(=O)O [Valproic acid] | > 10 µM | > 10 µM | > 10 µM | > 10 µM | > 10 µM | > 10 µM | > 10 µM | > 10 µM | > 10 µM | > 10 µM | > 10 µM | > 10 µM | > 10 µM | > 10 µM
13 | O=[As]O[As]=O (stereo not drawn) [Arsenic trioxide] | 4.27 µM | > 10 µM | 9.09 µM | > 10 µM | 8.74 µM | 8.69 µM | > 10 µM | > 10 µM | > 10 µM | 4.7 µM | 4.97 µM | > 10 µM | > 10 µM | 7.24 µM
14 | O=C(CCl)N(CCCNC(=O)C(F)(F)F)c1ccc([N+](=O)[O-])cc1 [ML175] | 0.309 µM | 2.95 µM | 3.41 µM | 0.305 µM | 0.896 µM | 2.13 µM | 2.23 µM | 0.297 µM | 0.288 µM | 0.32 µM | 0.276 µM | 2.77 µM | 0.341 µM | 2.54 µM
15 | OCCN1C[C@H](O)[C@@H](O)[C@H](O)[C@H]1CO [Miglitol] | > 10 µM | > 10 µM | > 10 µM | > 10 µM | > 10 µM | > 10 µM | > 10 µM | > 10 µM | > 10 µM | > 10 µM | > 10 µM | > 10 µM | > 10 µM | > 10 µM
16 | C=C1C(=O)O[C@H](CCCCCCCC)[C@H]1C(=O)O [C75] | > 10 µM | > 10 µM | > 10 µM | > 10 µM | > 10 µM | > 10 µM | > 10 µM | > 10 µM | > 10 µM | > 10 µM | > 10 µM | > 10 µM | > 10 µM | > 10 µM
17 | O=C(Oc1ccc([N+](=O)[O-])cc1)N1CCC(C(O)(c2ccc3c(c2)OCO3)c2ccc3c(c2)OCO3)CC1 [JZL184] | > 10 µM | > 10 µM | > 10 µM | > 10 µM | > 10 µM | > 10 µM | > 10 µM | > 10 µM | > 10 µM | > 10 µM | > 10 µM | > 10 µM | > 10 µM | > 10 µM

Source: the supplement of paper PMC8671470
